Results reported in ChEMBL document CHEMBL2016514, “Homobivalent ligands of the atypical antipsychotic clozapine: design, synthesis, and pharmacological evaluation” (J Med Chem, 2012).

Columns and labels:
D(2) dopamine receptor [1] = biological target: T1, D(2) dopamine receptor (Homo sapiens, UniProt P14416); assay: Inhibition of human dopamine D2L receptor expressed in intact CHO FlpIn cells assessed as inhibition of receptor-mediated mediated ERK1/2 phosphorylation by Alpha-Screen plate-based assay; type: cell-based
T1 sequence (P14416 whole entry): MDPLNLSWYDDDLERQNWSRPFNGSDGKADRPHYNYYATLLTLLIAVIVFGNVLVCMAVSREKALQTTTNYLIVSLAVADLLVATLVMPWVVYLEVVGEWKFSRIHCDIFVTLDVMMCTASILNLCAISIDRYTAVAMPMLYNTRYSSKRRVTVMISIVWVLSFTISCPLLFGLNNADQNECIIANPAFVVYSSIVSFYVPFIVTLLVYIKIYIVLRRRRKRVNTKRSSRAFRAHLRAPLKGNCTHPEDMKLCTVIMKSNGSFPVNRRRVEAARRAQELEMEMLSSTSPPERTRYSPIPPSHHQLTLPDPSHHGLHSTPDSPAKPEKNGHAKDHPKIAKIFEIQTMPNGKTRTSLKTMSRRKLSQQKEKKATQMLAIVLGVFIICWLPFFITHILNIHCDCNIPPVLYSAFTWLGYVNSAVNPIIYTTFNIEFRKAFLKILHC

D(2) dopamine receptor [2] = biological target: T1, D(2) dopamine receptor; assay: Displacement of [3H]-spiperone from human dopamine D2L receptor expressed in CHO FlpIn cell membrane measured after 3 hrs by topcount scintillation counting

pIC50 (D(2) dopamine receptor [1]; cho)	IC50 (D(2) dopamine receptor [1]; read-out: IC50) [nM]	Structure (SMILES)	also measured
< 5	> 10000	CN1CCN(C2=Nc3cc(Cl)ccc3N(NC(=O)CCCCCCCCCCCCCCCCC(=O)NN3c4ccc(Cl)cc4N=C(N4CCN(C)CC4)c4ccccc43)c3ccccc32)CC1	–
< 5	> 10000	CN1CCN(C2=Nc3cc(Cl)ccc3N(NC(=O)CCCCCCCCCCCCC(=O)NN3c4ccc(Cl)cc4N=C(N4CCN(C)CC4)c4ccccc43)c3ccccc32)CC1	–
–	2410	CN1CCN(C2=Nc3cc(Cl)ccc3N(NC(=O)CCC(=O)OCCOC(=O)CCC(=O)NN3c4ccc(Cl)cc4N=C(N4CCN(C)CC4)c4ccccc43)c3ccccc32)CC1	–
< 5	> 10000	CN1CCN(C2=Nc3cc(Cl)ccc3N(NC(=O)CCCCCCCCC(=O)NN3c4ccc(Cl)cc4N=C(N4CCN(C)CC4)c4ccccc43)c3ccccc32)CC1	–
–	44	O=C(CCCCCCCCC(=O)NCCCN1CCN(C2=Nc3cc(Cl)ccc3Nc3ccccc32)CC1)NCCCN1CCN(C2=Nc3cc(Cl)ccc3Nc3ccccc32)CC1	Ki (D(2) dopamine receptor [2]; read-out: Ki): 1.35 nM; Ki (D(2) dopamine receptor [2]; read-out: pKi (converted)): 1.23 nM
–	2630	CN1CCN(C2=Nc3cc(Cl)ccc3N(NC(=O)CCCC(=O)N3CCN(C(=O)CCCC(=O)NN4c5ccc(Cl)cc5N=C(N5CCN(C)CC5)c5ccccc54)CC3)c3ccccc32)CC1	–
< 5	> 10000	CN1CCN(C2=Nc3cc(Cl)ccc3N(C(=O)CCCCCCCCCCCCCCCCC(=O)N3c4ccc(Cl)cc4N=C(N4CCN(C)CC4)c4ccccc43)c3ccccc32)CC1	–
< 5	> 10000	CN1CCN(C2=Nc3cc(Cl)ccc3N(C(=O)CCCCCCCCCCCCCCCCCCC(=O)N3c4ccc(Cl)cc4N=C(N4CCN(C)CC4)c4ccccc43)c3ccccc32)CC1	–
–	2440	CN1CCN(C2=Nc3cc(Cl)ccc3N(NC(=O)CCCCCCC(=O)NN3c4ccc(Cl)cc4N=C(N4CCN(C)CC4)c4ccccc43)c3ccccc32)CC1	–
–	11000	O=C(CCCCCCCCCCCCC(=O)NCCCN1CCN(C2=Nc3cc(Cl)ccc3Nc3ccccc32)CC1)NCCCN1CCN(C2=Nc3cc(Cl)ccc3Nc3ccccc32)CC1	–
< 5	> 10000	CN1CCN(C2=Nc3cc(Cl)ccc3N(C(=O)CCCCCCCCCCC(=O)N3c4ccc(Cl)cc4N=C(N4CCN(C)CC4)c4ccccc43)c3ccccc32)CC1	–
–	1120	O=C(CCCCCCCCCCC(=O)NCCCN1CCN(C2=Nc3cc(Cl)ccc3Nc3ccccc32)CC1)NCCCN1CCN(C2=Nc3cc(Cl)ccc3Nc3ccccc32)CC1	IC50 (D(2) dopamine receptor [1]; read-out: pIC50 (converted)): 1100 nM
< 5	> 10000	CN1CCN(C2=Nc3cc(Cl)ccc3N(C(=O)CCCCCCCCCCCCC(=O)N3c4ccc(Cl)cc4N=C(N4CCN(C)CC4)c4ccccc43)c3ccccc32)CC1	–
–	–	O=C(CCCCCCCCCCCCCCCCCCC(=O)NCCCN1CCN(C2=Nc3cc(Cl)ccc3Nc3ccccc32)CC1)NCCCN1CCN(C2=Nc3cc(Cl)ccc3Nc3ccccc32)CC1	IC50 (D(2) dopamine receptor [1]; cho, read-out: IC50): > 10000 nM; IC50 (D(2) dopamine receptor [1]; read-out: pIC50 (converted)): > 10000 nM
–	776	CCCCCCCCCC(=O)N1c2ccc(Cl)cc2N=C(N2CCN(C)CC2)c2ccccc21	–
–	7800	O=C(CCCCCCCCCCCCCCCCC(=O)NCCCN1CCN(C2=Nc3cc(Cl)ccc3Nc3ccccc32)CC1)NCCCN1CCN(C2=Nc3cc(Cl)ccc3Nc3ccccc32)CC1	Ki (D(2) dopamine receptor [2]; read-out: Ki): 269 nM; Ki (D(2) dopamine receptor [2]; read-out: pKi (converted)): 245 nM
–	2660	CN1CCN(C2=Nc3cc(Cl)ccc3N(C(=O)CCCCCCC(=O)N3c4ccc(Cl)cc4N=C(N4CCN(C)CC4)c4ccccc43)c3ccccc32)CC1	IC50 (D(2) dopamine receptor [1]; read-out: pIC50 (converted)): 1780 nM
< 5	> 10000	CN1CCN(C2=Nc3cc(Cl)ccc3N(C(=O)CCCCCCCCC(=O)N3c4ccc(Cl)cc4N=C(N4CCN(C)CC4)c4ccccc43)c3ccccc32)CC1	–
–	87	O=C(CCCCC(=O)NCCCN1CCN(C2=Nc3cc(Cl)ccc3Nc3ccccc32)CC1)NCCCN1CCN(C2=Nc3cc(Cl)ccc3Nc3ccccc32)CC1	Ki (D(2) dopamine receptor [2]; read-out: Ki): 3.6 nM; Ki (D(2) dopamine receptor [2]; read-out: pKi (converted)): 3.16 nM
–	1620	CN1CCN(C2=Nc3cc(Cl)ccc3N(NC(=O)CCC(=O)N3CCN(C(=O)CCC(=O)NN4c5ccc(Cl)cc5N=C(N5CCN(C)CC5)c5ccccc54)CC3)c3ccccc32)CC1	–
–	23	O=C(CCCCCCC(=O)NCCCN1CCN(C2=Nc3cc(Cl)ccc3Nc3ccccc32)CC1)NCCCN1CCN(C2=Nc3cc(Cl)ccc3Nc3ccccc32)CC1	Ki (D(2) dopamine receptor [2]; read-out: Ki): 1.41 nM; Ki (D(2) dopamine receptor [2]; read-out: pKi (converted)): 1.35 nM
< 5	> 10000	CN1CCN(C2=Nc3cc(Cl)ccc3N(NC(=O)CCCCCCCCCCCCCCCCCCC(=O)NN3c4ccc(Cl)cc4N=C(N4CCN(C)CC4)c4ccccc43)c3ccccc32)CC1	–
–	1460	CCCCCCCCCC(=O)NCCCN1CCN(C2=Nc3cc(Cl)ccc3Nc3ccccc32)CC1	Ki (D(2) dopamine receptor [2]; read-out: Ki): 9.1 nM; Ki (D(2) dopamine receptor [2]; read-out: pKi (converted)): 8.91 nM
–	8940	CCCCCCCCCC(=O)NN1c2ccc(Cl)cc2N=C(N2CCN(C)CC2)c2ccccc21	–
< 5	> 10000	CN1CCN(C2=Nc3cc(Cl)ccc3N(NC(=O)CCCCCCCCCCC(=O)NN3c4ccc(Cl)cc4N=C(N4CCN(C)CC4)c4ccccc43)c3ccccc32)CC1	–
–	2080	CN1CCN(C2=Nc3cc(Cl)ccc3N(NC(=O)CCCCC(=O)NN3c4ccc(Cl)cc4N=C(N4CCN(C)CC4)c4ccccc43)c3ccccc32)CC1	IC50 (D(2) dopamine receptor [1]; read-out: pIC50 (converted)): 2040 nM
